Experimental data from PMC11101630.

How the values were obtained:
[1] = tested on: RhoBAST A33C (RNA, aptamer) GGAACCUCCGCGAAAGCGGUGACGGAGAGGCGCAAGGUUAACCGCCUCAGGUUCC; test: ITC; settings: K+ 100 mM; Mg2+ concentration not given; 20 mM Tris-HCl pH 7.5, 25 °C; similar to WT
[2] = tested on: RhoBAST C52A (RNA, aptamer) GGAACCTCCGCGAAAGCGGUGAAGGAGAGGCGCAAGGUUAAACGCCUCAGGUUCC; test: ITC; settings: K+ 100 mM; Mg2+ concentration not given; 20 mM Tris-HCl pH 7.5, 25 °C; 46 x K of WT
[3] = tested on: RhoBAST L2-U1 (L2'-U1; RhoBAST-U1A Loop) (RNA, aptamer) GGAACCUCCGCCCAUUGCACUCCGGGCGGUGAAGGAGAGGCGCAAGGUUAACCGCCUCAGGUUCC; test: binding assay in Supplementary Fig. 1b; settings: K+ 100 mM, Mg2+ 10 mM assumed; 20 mM Tris-HCl pH 7.5, 25 °C, nM inferred from ΔG high affinity as wild type
[4] = tested on: RhoBAST ∆U7 (RNA, aptamer) GGAACCCCGCGAAAGCGGUGAAGGAGAGGCGCAAGGUUAACCGCCUCAGGUUCC; test: ITC; settings: K+ 100 mM; Mg2+ concentration not given; 20 mM Tris-HCl pH 7.5, 25 °C; affinity not prominently reduced
[5] = tested on: RhoBAST G31C (RNA, aptamer) GGAACCTCCGCGAAAGCGGUCAAGGAGAGGCGCAAGGUUAACCGCCUCAGGUUCC; test: ITC; settings: K+ 100 mM; Mg2+ concentration not given; 20 mM Tris-HCl pH 7.5, 25 °C; 100 μM TMR-DN titrated into 10 μM RNA
[6] = tested on: RhoBAST WT (RNA, aptamer) GGAACCUCCGCGAAAGCGGUGAAGGAGAGGCGCAAGGUUAACCGCCUCAGGUUCC; test: ITC; settings: K+ 100 mM, Mg2+ 0.5 mM; 20 mM Tris-HCl pH 7.5, 25 °C; no binding observed without Mg2+
[7] = tested on: RhoBAST U30C/A36C (RNA, aptamer) GGAACCUCCGCGAAAGCGGCGAAGGCGAGGCGCAAGGUUAACCGCCUCAGGUUCC; test: ITC; settings: K+ 100 mM; Mg2+ concentration not given; 20 mM Tris-HCl pH 7.5, 25 °C; 28 x K of WT
[8] = tested on: RhoBAST U49A (RNA, aptamer) GGAACCUCCGCGAAAGCGGUGAAGGAGAGGCGCAAGGUAAACCGCCUCAGGUUCC; test: ITC; settings: K+ 100 mM; Mg2+ concentration not given; 20 mM Tris-HCl pH 7.5, 25 °C; 100 x K of WT
[9] = tested on: RhoBAST G47A (RNA, aptamer) GGAACCUCCGCGAAAGCGGUGAAGGAGAGGCGCAAGAUUAACCGCCUCAGGUUCC; test: ITC; settings: K+ 100 mM; Mg2+ concentration not given; 20 mM Tris-HCl pH 7.5, 25 °C; 26.8 x K of WT
[10] = tested on: RhoBAST A33G (RNA, aptamer) GGAACCUCCGCGAAAGCGGUGAGGGAGAGGCGCAAGGUUAACCGCCUCAGGUUCC; test: ITC; settings: K+ 100 mM; Mg2+ concentration not given; 20 mM Tris-HCl pH 7.5, 25 °C; similar to WT
[11] = tested on: RhoBAST A36U (RNA, aptamer) GGAACCUCCGCGAAAGCGGUGAAGGUGAGGCGCAAGGUUAACCGCCUCAGGUUCC; test: ITC; settings: K+ 100 mM; Mg2+ concentration not given; 20 mM Tris-HCl pH 7.5, 25 °C; 3.5 x K of WT
[12] = tested on: RhoBAST A51U (RNA, aptamer) GGAACCUCCGCGAAAGCGGUGAAGGAGAGGCGCAAGGUUAUCCGCCUCAGGUUCC; test: ITC; settings: K+ 100 mM; Mg2+ concentration not given; 20 mM Tris-HCl pH 7.5, 25 °C, nM inferred from ΔG
[13] = tested on: RhoBAST A50U (RNA, aptamer) GGAACCUCCGCGAAAGCGGUGAAGGAGAGGCGCAAGGUUUACCGCCUCAGGUUCC; test: ITC; settings: K+ 100 mM; Mg2+ concentration not given; 20 mM Tris-HCl pH 7.5, 25 °C, nM inferred from ΔG
[14] = tested on: RhoBAST G37A (RNA, aptamer) GGAACCUCCGCGAAAGCGGUGAAGGAAAGGCGCAAGGUUAACCGCCUCAGGUUCC; test: ITC; settings: K+ 100 mM; Mg2+ concentration not given; 20 mM Tris-HCl pH 7.5, 25 °C; affinity not prominently reduced
[15] = tested on: RhoBAST U48C (RNA, aptamer) GGAACCUCCGCGAAAGCGGUGAAGGAGAGGCGCAAGGCUAACCGCCUCAGGUUCC; test: ITC; settings: K+ 100 mM; Mg2+ concentration not given; 20 mM Tris-HCl pH 7.5, 25 °C; 1.3 x K of WT
[16] = tested on: RhoBAST L2-U1 (L2'-U1; RhoBAST-U1A Loop) (RNA, aptamer) GGAACCUCCGCCCAUUGCACUCCGGGCGGUGAAGGAGAGGCGCAAGGUUAACCGCCUCAGGUUCC; test: X-ray crystal structure, 2.75 Å; settings: Mg2+; co-crystal with U1A protein
[17] = tested on: RhoBAST A36C (RNA, aptamer) GGAACCUCCGCGAAAGCGGUGAAGGCGAGGCGCAAGGUUAACCGCCUCAGGUUCC; test: ITC; settings: K+ 100 mM; Mg2+ concentration not given; 20 mM Tris-HCl pH 7.5, 25 °C; 40 x K of WT
[18] = tested on: RhoBAST C8G (RNA, aptamer) GGAACCUGCGCGAAAGCGGUGAAGGAGAGGCGCAAGGUUAACCGCCUCAGGUUCC; test: ITC; settings: K+ 100 mM; Mg2+ concentration not given; 20 mM Tris-HCl pH 7.5, 25 °C; affinity not prominently reduced
[19] = tested on: RhoBAST L3'-U1 (RNA, aptamer) GGAACCUCCGCGAAAGCGGUGAAGGAGAGGCCAUUGCACUCCGGCCUCAGGUUCC; test: binding assay in Supplementary Fig. 1b
[20] = tested on: RhoBAST G35A (RNA, aptamer) GGAACCTCCGCGAAAGCGGUGAAGAAGAGGCGCAAGGUUAACCGCCUCAGGUUCC; test: ITC; settings: K+ 100 mM; Mg2+ concentration not given; 20 mM Tris-HCl pH 7.5, 25 °C; 100 μM TMR-DN titrated into 10 μM RNA
[21] = tested on: RhoBAST G47C (RNA, aptamer) GGAACCUCCGCGAAAGCGGUGAAGGAGAGGCGCAAGCUUAACCGCCUCAGGUUCC; test: ITC; settings: K+ 100 mM; Mg2+ concentration not given; 20 mM Tris-HCl pH 7.5, 25 °C; 100 μM TMR-DN titrated into 10 μM RNA
[22] = tested on: RhoBAST C52G (RNA, aptamer) GGAACCTCCGCGAAAGCGGUGAAGGAGAGGCGCAAGGUUAAGCGCCUCAGGUUCC; test: ITC; settings: K+ 100 mM; Mg2+ concentration not given; 20 mM Tris-HCl pH 7.5, 25 °C; 100 μM TMR-DN titrated into 10 μM RNA
[23] = tested on: RhoBAST G46A (RNA, aptamer) GGAACCUCCGCGAAAGCGGUGAAGGAGAGGCGCAAAGUUAACCGCCUCAGGUUCC; test: ITC; settings: K+ 100 mM; Mg2+ concentration not given; 20 mM Tris-HCl pH 7.5, 25 °C; 6.2 x K of WT
[24] = tested on: RhoBAST G35C/C52G (RNA, aptamer) GGAACCTCCGCGAAAGCGGUGAAGCAGAGGCGCAAGGUUAAGCGCCUCAGGUUCC; test: ITC; settings: K+ 100 mM; Mg2+ concentration not given; 20 mM Tris-HCl pH 7.5, 25 °C; 100 μM TMR-DN titrated into 10 μM RNA
[25] = target: U1A (U1 RNA-binding protein, co-crystallization chaperone) (human, UniProt P09012 1-102); test: ITC; TMR-DN presence in this assay not stated; ITC: 20 mM Tris-HCl pH 7.5, 100 mM KCl, 0-10 mM MgCl2, 25 C (described for RNA-fluorophore titrations; U1A conditions not separately given); settings: protein: recombinant; four-way junction; U1A hairpin loop
Chain of U1A (U1 RNA-binding protein, co-crystallization chaperone) (P09012 1-102): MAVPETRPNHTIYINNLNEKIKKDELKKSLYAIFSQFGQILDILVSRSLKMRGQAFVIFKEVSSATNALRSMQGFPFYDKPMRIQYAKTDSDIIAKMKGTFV

CN(C)c1ccc2c(-c3ccc(C(=O)NCCOCCOCCNc4ccc([N+](=O)[O-])cc4[N+](=O)[O-])cc3C(=O)[O-])c3ccc(=[N+](C)C)cc-3oc2c1
KD [1]: 65.5 nM
KD [2]: 1600 nM
KD [3]: 35.5 ± 5.69 nM
KD [4]: 56.9 nM
binding [5]: no
KD [6]: ~ 24 nM
KD [7]: 976 nM
KD [8]: 3510 nM
KD [9]: 931 nM
KD [10]: 35.1 nM
KD [11]: 122 nM
KD [12]: 1060 nM
KD [13]: 3590 nM
KD [14]: 83 nM
KD [15]: 45.5 nM
binding [16]: yes
KD [17]: 1400 nM
KD [18]: 47 nM
binding [19]: no
binding [20]: no
binding [21]: no
binding [22]: no
KD [23]: 217 nM
binding [24]: no

B1: RhoBAST-U1A Loop (L2'-U1) (structured_RNA)
RNA: GGAACCUCCGCCCAUUGCACUCCGGGCGGUGAAGGAGAGGCGCAAGGUUAACCGCCUCAGGUUCC
Kd [25]: 7.94 ± 1.74 nM
